# Data reported in ChEMBL document CHEMBL1201862, “PubChem BioAssay data set” (2004).
#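 Growth conditions: 96-well plates. Treatment: test compound, 48 hours, 5 concentrations. Analysis: linear interpolation between bracketing concentrations; unreached endpoints set to highest concentration. GI50 marks 50% less growth.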 Calls of active or inactive are those of the source. Cut-off read from the data, not from the text of the source: active = GI50 up to about 1.1 µM and inactive = higher.
# Legend:
# Test in all cases: inhibition of tumour cell growth, NCI panel, 48 h
# [1] = system: Hs-578T
# [2] = system: ACHN
# [3] = system: HOP-92
# [4] = system: CCRF-CEM
# [5] = system: SF-295
# [6] = system: SK-MEL-28
# [7] = system: HCT-15
# [8] = system: COLO 205
# [9] = system: MDA-N
# [10] = system: RPMI-8226
# [11] = system: SK-MEL-5
# [12] = system: MOLT-4
# [13] = system: K562
# [14] = system: NCI-H23
# [15] = system: NCI/ADR-RES
# [16] = system: SF-539
# [17] = system: SR
# [18] = system: SN12C
# [19] = system: IGROV-1
# [20] = system: SK-MEL-2
SMILES,GI50 [1],GI50 [2],GI50 [3],GI50 [4],GI50 [5],GI50 [6],GI50 [7],GI50 [8],GI50 [9],GI50 [10],GI50 [11],GI50 [12],GI50 [13],GI50 [14],GI50 [15],GI50 [16],GI50 [17],GI50 [18],GI50 [19],GI50 [20]
Nc1ccccc1CC(O)C(=O)O (configuration not stated),> 100 µM (inactive),> 100 µM (inactive),> 100 µM (inactive),> 100 µM (inactive),> 100 µM (inactive),> 100 µM (inactive),> 100 µM,> 100 µM (inactive),> 100 µM (inactive),> 100 µM (inactive),> 100 µM (inactive),> 100 µM (inactive),> 100 µM (inactive),> 100 µM (inactive),> 100 µM (inactive),> 100 µM (inactive),> 100 µM (inactive),> 100 µM (inactive),,
Cc1cc(-c2cccc3ccccc23)c(C#N)c(=S)n1C1OC(CO)C(O)C(O)C1O (configuration not stated),86.5 µM (inactive),> 100 µM (inactive),,71.1 µM (inactive),> 100 µM (inactive),,> 100 µM,> 100 µM (inactive),> 100 µM (inactive),,67 µM (inactive),> 100 µM (inactive),,> 100 µM (inactive),> 100 µM (inactive),> 100 µM (inactive),98.4 µM (inactive),82.8 µM (inactive),> 100 µM (inactive),> 100 µM (inactive)
NC1CNC(=O)c2cscc21 (configuration not stated),> 100 µM (inactive),> 100 µM (inactive),> 100 µM (inactive),> 100 µM (inactive),> 100 µM (inactive),> 100 µM (inactive),> 100 µM,> 100 µM (inactive),> 100 µM (inactive),> 100 µM (inactive),> 100 µM (inactive),> 100 µM (inactive),> 100 µM (inactive),> 100 µM (inactive),3.01 µM (inactive),,> 100 µM (inactive),> 100 µM (inactive),> 100 µM (inactive),
[N-]=[N+]=Nc1c(-c2ccccc2)c(=O)n(-c2ccccc2)c2ccccc12,56.9 µM (inactive),49.4 µM (inactive),49.4 µM (inactive),> 100 µM (inactive),49 µM (inactive),94.6 µM (inactive),38.2 µM,62.1 µM (inactive),45.3 µM (inactive),> 100 µM (inactive),,75.7 µM (inactive),> 100 µM (inactive),80.5 µM (inactive),63 µM (inactive),> 100 µM (inactive),> 100 µM (inactive),60.8 µM (inactive),> 100 µM (inactive),
O=c1c(C(c2ccc(C(c3c(O)oc4cc(O)ccc4c3=O)c3c(O)oc4cc(O)ccc4c3=O)cc2)c2c(O)oc3cc(O)ccc3c2=O)c(O)oc2cc(O)ccc12,> 100 µM (inactive),,> 100 µM (inactive),53.2 µM (inactive),> 100 µM (inactive),> 100 µM (inactive),> 100 µM,53.3 µM (inactive),> 100 µM (inactive),,48.6 µM (inactive),> 100 µM (inactive),> 100 µM (inactive),> 100 µM (inactive),> 100 µM (inactive),> 100 µM (inactive),> 100 µM (inactive),93.1 µM (inactive),> 100 µM (inactive),> 100 µM (inactive)
NCCNCCNc1ccc(NCCNCCN)c2c1C(=O)c1c(O)ccc(O)c1C2=O,68.7 µM (inactive),> 100 µM (inactive),> 100 µM (inactive),38.9 µM (inactive),99.3 µM (inactive),> 100 µM (inactive),> 100 µM,> 100 µM (inactive),> 100 µM (inactive),> 100 µM (inactive),> 100 µM (inactive),14 µM (inactive),> 100 µM (inactive),> 100 µM (inactive),> 100 µM (inactive),> 100 µM (inactive),2.21 µM (inactive),> 100 µM (inactive),> 100 µM (inactive),
